In US7678384B2, “Vinylaminopyrazole derivatives as pesticides” (Merial Limited, priority 2004, dated 2010):

What was measured:
Format in all cases: in vivo
[1] = test system: Diabrotica undecimpunctata (southern corn rootworm); experiment: Method B: Diabrotica undecimpunctata (southern corn rootworm) screen; conditions: concentration 10 ppm; eggs on filter paper with maize seed; assessed 6 days after application
Source text: METHOD B: Diabrotica undecimpunctata (southern corn rootworm) screen
Two days before application, seeds of maize were soaked in water under warm conditions to elicit fast germination. One day before application, eggs of Diabrotica undecimpunctata were transferred to one half of a Japanese filter paper placed in a plastic petri dish. Afterwards, a sprouted maize seed was placed on a moistened pad beside the filter paper. Three drops of 200 microlitres of test compound solution were carefully pipetted onto the egg. The remainder of the solution was placed on the maize and then the Petri dish was closed. The treated eggs in the Petri dishes were held in a climate chamber for 6 days. The compound efficacy (percentage of dead eggs and/or larvae in comparison to untreated control) was assessed 6 days after application using a binocular microscope. Compound number 1-1 gave at least 60% control with the concentration at 10 ppm.

[2] = test system: Ctenocephalides felis (Cat flea); experiment: Method A: screening method to test systemicity against Ctenocephalides felis (artificial dog test, treated bovine blood); conditions: test concentration 1 ppm in bovine blood; 10 adults; assessment at 24 and 48 hours
Description: METHOD A: Screening method to test systemicity of compounds against Ctenocephalides felis (Cat flea)
A test container was filled with 10 adults of Ctenocephalides felis. A glass cylinder was closed on one end with parafilm and placed on top of the test container. The test compound solution was then pipetted into bovine blood and added to the glass cylinder. The treated Ctenocephalides felis were held in this artificial dog test (blood 37° C., 40-60% relative humidity; Ctenocephalides felis 20-22° C., 40-60% relative humidity) and assessment performed at 24 and 48 hours after application.

[3] = test system: tobacco budworm (Heliothis virescens); experiment: Method E: Heliothis virescens screen; conditions: concentration 100 ppm; egg dip; after 6 days
Description: METHOD E: Heliothis Virescens Screen
A Petri dish whose bottom is covered with filter paper and which contains about 5 ml of culture medium is prepared. Pieces of filter paper with about 30, 24-hour-old eggs of the tobacco budworm (Heliothis virescens) are dipped into an aqueous solution of the formulated preparation to be examined for about 5 seconds and subsequently placed into the Petri dish. A further 200 μl of the aqueous solution are dropped over the culture medium. The Petri dish is closed and then kept at about 25° C. in a climatized chamber. After 6 days storage, the effect of the preparation on the eggs and the larvae which may have hatched from these is determined. Compound number 1-1 gave at least 50% control of tobacco budworm with the concentration at 100 ppm.

[4] = test system: Rhipicephalus sanguineus (Brown dog tick); experiment: Method D: screening method to test contact activity against Rhipicephalus sanguineus; conditions: test concentration 10 ppm; filter paper contact; L1 larvae; 24 hours after application
Description: METHOD D: Screening method to test contact activity against Rhipicephalus sanguineus (Brown dog tick)
Solutions of the test compounds were dropped onto filter paper, dried and the filter paper placed into test tubes and infested with 20-30 larvae (L1) of Rhipicephalus sanguineus and the tubes closed with a clip. The treated Rhipicephalus sanguineus were held in a climate chamber (25° C., 90% RH) and the percentage efficacy assessed 24 hours after application in comparison with the untreated control.

Nilaparvata lugens = experiment: Method C: Rice leafhopper screen; conditions: foliar, 144 h, read-out: control of Nilaparvata lugens (mortality among leafhopper larvae)
Description: METHOD C: Rice leafhopper screen
The leaves of rice plants are dipped for 5 seconds into an aqueous solution of the formulated preparation to be examined. After the solution has run off, the rice plants are placed in a Petri dish and populated with about 20 larvae (L3 stage) of the rice leafhopper species Nilaparvata lugens. The Petri dish is closed and then stored in a climatized chamber (16 hours of light/day, 25° C., 40-60% relative atmospheric humidity). After 6 days storage, the mortality among the leafhopper larvae is determined. Compound number 1-1 gave at least 60% control of Nilaparvata lugens with the concentration of 10 ppm.

[5] = test system: Frankliniella occidentalis; experiment: Method F: Thrip (Frankliniella occidentalis) screen; conditions: concentration 100 ppm; French bean leaf dip; mixed population; after 7 days
Description: METHOD F: Thrip (Frankliniella occidentalis) Screen
French bean plants are cut at the base of the stem and transferred into bottles filled with tap water. The leaves are then dipped for 5 seconds into an aqueous solution of the formulated preparation to be examined. After the solution has run off, the leaves are infested with 20-30 individuals of a mixed population of flower thrips (Frankliniella occidentalis) and then stored in a controlled-environment cabinet at approx. 25° C. After 7 days storage, the effect of the preparation on the thrips is determined. Compound number 1-1 gave at least 70% control of Frankliniella occidentalis at the concentration of 100 ppm.

Compound	control (percentage of dead eggs and/or larvae in comparison to untreated control) [1]	control of Ctenocephalides felis [2]	control of tobacco budworm (effect on eggs and larvae) [3]	control (percentage efficacy in comparison with untreated control) [4]	mortality at 10 ppm (Nilaparvata lugens) [%]	control of Frankliniella occidentalis [5]
C=CN(C)c1c(S(=O)(=O)C(F)(F)F)c(C#N)nn1-c1c(Cl)cc(C(F)(F)F)cc1Cl [Compound 1-1, 1-[2,6-dichloro-4-(trifluoromethyl)phenyl]-5-[methyl(vinyl)amino]-4-[(trifluoromethyl)sulfonyl]-1H-pyrazole-3-carbonitrile]	at least 60%	at least 50%	at least 50%	at least 50%	≥ 60	at least 70%
CN(CCI)c1c(S(=O)(=O)C(F)(F)F)c(C#N)nn1-c1c(Cl)cc(C(F)(F)F)cc1Cl [Intermediate Example 2, 1-[2,6-dichloro-4-(trifluoromethyl)phenyl]-5-[(2-iodoethy)(methyl)amino]-4-[(trifluoromethyl)sulfonyl]-1H-pyrazole-3-carbonitrile]		at least 70%				
